According to patent publication US11771765B2, “Light augmented treatment method” (The Procter & Gamble Company, priority 2019, dated 2023):
Where two headings read alike, the source gives them in different places.

Legend:
[1] = test system: M. furfur; assay: M. furfur viability on mDixon agar plates after Piroctone Olamine and 409 nm light (Table 3); type: cell-based, Malassezia furfur; set-up: key to growth on mDixon agar plate (score): +: a continuous fungal lawn; +/−: a lawn with breaks allowing the agar to show; −: 0 to 5 colonies
Protocol: M. furfur is incubated for one hour with the indicated concentrations of Piroctone Olamine then a cell pellet of 4 OD*mL is collected by centrifugation so that most of the anti-fungal material has been removed. The cell pellet is suspended in 4.2 mL PBS and 1 mL samples are distributed to four 12 well plates and treated with light (409 nm, 1200 fc) for 1, 10 or 60 minutes or stored in the dark. Samples are processed as described previously with 600 uL diluted into 13 mL mDixon and 50 uL of the photolyzed cells are diluted into 50 uL of mDixon then three 40 uL+360 uL mDixon dilutions are prepared.
Where +=a continuous fungal lawn, +/−=a lawn with breaks allowing the agar to show, −=0 to 5 colonies
After the photolysis, 0.6 mL is added to 13 mL fresh mDixon and grown overnight but, in addition, 50 uL is added to 50 uL mDixon then that sample is diluted 3 more times 40 uL=>400 uL and 10 uL of each of the dilutions are plated in duplicate on mDixon agar plates.

[2] = test system: S. cerevisiae BY4741; details: for 17 h growth: YNB Ethanol
Protocol: Cells are grown in the medium of choice, generally one requiring respiration. In the case of Malassezia furfur that medium is modified Dixon medium (mDixon) (per one liter: 36 g malt extract (Difco 0186-17), 20 g ox bile (provided by American Laboratories, Inc., of Omaha, Nebraska, as Lot No. 03130792), 10 ml Tween 40 (Aldrich 27435-6), 6 g peptone (Difco 0118-17), 2 ml oleic acid (Baker 2114-01), and 2 ml glycerol (Sigma G-7893)). [Candida and YPG, Saccharomyces and YNB (without amino acids) to which we added 40 μg/ml each of uracil, histidine, and methionine plus 130 μg/ml leucine and 2% ethanol and 0.1% yeast extract.] Conventional medium may also be used for other microbials. Starting cultures are prepared by diluting a fresh overnight culture that is out of log phase 1:100 and incubating with shaking at 31° C. in a 250 mL shake flask (Corning, 431144) with 20 mL medium shaking at 200-250 rpm for about 3 hours to ensure the cells had returned to growth phase. At this time, the test agent is added to the flasks to afford the final concentration for testing. The cells are cultured for 1 hour with the test agent. At this time, the cells typically have an OD at 600 nm in the range of 0.25 to 0.8. Generally, we isolate 2.5 OD*mLs of cells calculated as desired OD*mLs divided by the OD600 of the cells. These media samples are centrifuged (Beckman Coulter Allegra™ 6KR centrifuge) 10 minutes at RT at 3200 rpm to pellet the cells. The supernatant is poured off and the tubes are set upside down on a folded paper towel to drain off the remains of media. Two and one half milliliters of PBS (Gibco, pH 7.4, without magnesium chloride or calcium chloride, 14190-144) is added and the cells resuspended. One mL of cells is transferred to each of two 12-well plates (Falcon, polystyrene, 353043). One plate is stored in the dark and the other is exposed to the light with the plate cover on the plate. […] When the light exposure is completed, the samples are mixed by slowly vortexing or pipetting and 0.65 mL of each sample is transferred to 13 mL of medium for overnight growth at 31° C. with shaking. The following morning, typically 18 hours later, the ODs at 600 nm are determined. Successful materials are those that show at least a 50% reduction in growth after light exposure relative to a dark sample.
S. cerevisiae is exposed to light from LED flashlights of the indicated wavelength as well as a painter's light/worklight, commonly found at a hardware store, which provides a broad spectrum of wavelengths of light. Yeast has been pretreated as indicated, prior to light exposure.

SMILES: Cc1cc(CC(C)CC(C)(C)C)n(O)c(=O)c1.NCCO (stereo not shown) [Piroctone Olamine, 1-Hydroxy-4-methyl-6-(2,4,4-trimethylpentyl)-2-pyridone monoethanolamine salt]
- effect of light on viable cells ([1]; 8 ppm): no effect
- holding growth down overnight in the original samples ([1]; 8 ppm): does not hold M. furfur growth down overnight
- growth on mDixon agar plate (score) ([1]; 8 ppm 1 h, culture dilution 1:2, 409 nm light 1 min): +
- growth on mDixon agar plate (score) ([1]; 8 ppm 1 h, culture dilution 1:2, 409 nm light 10 min): +
- growth on mDixon agar plate (score) ([1]; 8 ppm 1 h, culture dilution 1:2, 409 nm light 60 min): +
- growth on mDixon agar plate (score) ([1]; 8 ppm 1 h, culture dilution 1:2, Dark): +
- growth on mDixon agar plate (score) ([1]; 8 ppm 1 h, culture dilution 1:20, 409 nm light 1 min): +
- growth on mDixon agar plate (score) ([1]; 8 ppm 1 h, culture dilution 1:20, 409 nm light 10 min): +
- growth on mDixon agar plate (score) ([1]; 8 ppm 1 h, culture dilution 1:20, 409 nm light 60 min): +
- growth on mDixon agar plate (score) ([1]; 8 ppm 1 h, culture dilution 1:20, Dark): +
- growth on mDixon agar plate (score) ([1]; 8 ppm 1 h, culture dilution 1:200, 409 nm light 1 min): +/−
- growth on mDixon agar plate (score) ([1]; 8 ppm 1 h, culture dilution 1:200, 409 nm light 10 min): +/−
- growth on mDixon agar plate (score) ([1]; 8 ppm 1 h, culture dilution 1:200, 409 nm light 60 min): +/−
- growth on mDixon agar plate (score) ([1]; 8 ppm 1 h, culture dilution 1:200, Dark): +/−
- growth on mDixon agar plate (score) ([1]; 8 ppm 1 h, culture dilution 1:2000, 409 nm light 1 min): +/−
- growth on mDixon agar plate (score) ([1]; 8 ppm 1 h, culture dilution 1:2000, 409 nm light 10 min): +/−
- growth on mDixon agar plate (score) ([1]; 8 ppm 1 h, culture dilution 1:2000, 409 nm light 60 min): +/−
- growth on mDixon agar plate (score) ([1]; 8 ppm 1 h, culture dilution 1:2000, Dark): +/−
- holding growth down overnight in the original samples ([1]; 16 and 32 ppm): 16 and 32 ppm do
- fewer viable cells ([1]; 16 and 32 ppm, 1 minute of light exposure): about 10 fold
- fewer cells ([1]; 16 and 32 ppm, longer light exposures): > 100 fold
- growth on mDixon agar plate (score) ([1]; 16 ppm 1 h, culture dilution 1:2, 409 nm light 1 min): +
- growth on mDixon agar plate (score) ([1]; 16 ppm 1 h, culture dilution 1:2, 409 nm light 10 min): +/−
- growth on mDixon agar plate (score) ([1]; 16 ppm 1 h, culture dilution 1:2, 409 nm light 60 min): +/−
- growth on mDixon agar plate (score) ([1]; 16 ppm 1 h, culture dilution 1:2, Dark): +
- growth on mDixon agar plate (score) ([1]; 16 ppm 1 h, culture dilution 1:20, 409 nm light 1 min): +/−
- growth on mDixon agar plate (score) ([1]; 16 ppm 1 h, culture dilution 1:20, 409 nm light 10 min): +/−
- growth on mDixon agar plate (score) ([1]; 16 ppm 1 h, culture dilution 1:20, 409 nm light 60 min): +/−
- growth on mDixon agar plate (score) ([1]; 16 ppm 1 h, culture dilution 1:20, Dark): +
- growth on mDixon agar plate (score) ([1]; 16 ppm 1 h, culture dilution 1:200, 409 nm light 1 min): +/−
- growth on mDixon agar plate (score) ([1]; 16 ppm 1 h, culture dilution 1:200, 409 nm light 10 min): − (0 to 5 colonies)
- growth on mDixon agar plate (score) ([1]; 16 ppm 1 h, culture dilution 1:200, 409 nm light 60 min): − (0 to 5 colonies)
- growth on mDixon agar plate (score) ([1]; 16 ppm 1 h, culture dilution 1:200, Dark): +/−
- growth on mDixon agar plate (score) ([1]; 16 ppm 1 h, culture dilution 1:2000, 409 nm light 1 min): +/−
- growth on mDixon agar plate (score) ([1]; 16 ppm 1 h, culture dilution 1:2000, 409 nm light 10 min): − (0 to 5 colonies)
- growth on mDixon agar plate (score) ([1]; 16 ppm 1 h, culture dilution 1:2000, 409 nm light 60 min): − (0 to 5 colonies)
- growth on mDixon agar plate (score) ([1]; 16 ppm 1 h, culture dilution 1:2000, Dark): +/−
- growth on mDixon agar plate (score) ([1]; 32 ppm 1 h, culture dilution 1:2, 409 nm light 1 min): +
- growth on mDixon agar plate (score) ([1]; 32 ppm 1 h, culture dilution 1:2, 409 nm light 10 min): +/−
- growth on mDixon agar plate (score) ([1]; 32 ppm 1 h, culture dilution 1:2, 409 nm light 60 min): +/−
- growth on mDixon agar plate (score) ([1]; 32 ppm 1 h, culture dilution 1:2, Dark): +
- growth on mDixon agar plate (score) ([1]; 32 ppm 1 h, culture dilution 1:20, 409 nm light 1 min): +/−
- growth on mDixon agar plate (score) ([1]; 32 ppm 1 h, culture dilution 1:20, 409 nm light 10 min): +/−
- growth on mDixon agar plate (score) ([1]; 32 ppm 1 h, culture dilution 1:20, 409 nm light 60 min): +/−
- growth on mDixon agar plate (score) ([1]; 32 ppm 1 h, culture dilution 1:20, Dark): +
- growth on mDixon agar plate (score) ([1]; 32 ppm 1 h, culture dilution 1:200, 409 nm light 1 min): +/−
- growth on mDixon agar plate (score) ([1]; 32 ppm 1 h, culture dilution 1:200, 409 nm light 10 min): +/−
- growth on mDixon agar plate (score) ([1]; 32 ppm 1 h, culture dilution 1:200, 409 nm light 60 min): − (0 to 5 colonies)
- growth on mDixon agar plate (score) ([1]; 32 ppm 1 h, culture dilution 1:200, Dark): +/−
- growth on mDixon agar plate (score) ([1]; 32 ppm 1 h, culture dilution 1:2000, 409 nm light 1 min): +/−
- growth on mDixon agar plate (score) ([1]; 32 ppm 1 h, culture dilution 1:2000, 409 nm light 10 min): − (0 to 5 colonies)
- growth on mDixon agar plate (score) ([1]; 32 ppm 1 h, culture dilution 1:2000, 409 nm light 60 min): − (0 to 5 colonies)
- growth on mDixon agar plate (score) ([1]; 32 ppm 1 h, culture dilution 1:2000, Dark): +/−

SMILES: [O-]n1ccccc1=S.[O-]n1ccccc1=S.[Zn+2] [ZPT, zinc salt of 1-hydroxy-2-pyridinethione]
- 17 h growth ([2]; 0.8 ppm, 395 nm light): 0.7205
- 17 h growth ([2]; 0.8 ppm, 520 nm light): 1.418
- 17 h growth ([2]; 0.8 ppm, 580 nm light): 1.332
- 17 h growth ([2]; 0.8 ppm, Broad Spectrum light): 0.525
- 17 h growth ([2]; 0.8 ppm, Dark): 1.5185
- 17 h growth ([2]; 1.6 ppm, 395 nm light): 0.3435
- 17 h growth ([2]; 1.6 ppm, 520 nm light): 1.3615
- 17 h growth ([2]; 1.6 ppm, 580 nm light): 0.9245
- 17 h growth ([2]; 1.6 ppm, Broad Spectrum light): 0.303
- 17 h growth ([2]; 1.6 ppm, Dark): 1.525
- sensitivity of treated yeast to light ([2]; ZPT-treated, LED flashlights 395, 520, 580 nm): sensitive to a 395 nm flashlight, but not two other wavelengths of light
